Publication PMC6556873, “Rapid Covalent-Probe Discovery by Electrophile-Fragment Screening” (Journal of the American Chemical Society, 2019)
Read-outs that look alike come from different tables or passages of the source.

Legend:
in vitro [1] = test: in vitro; parameters: species or system HB2, HEK293; conditions: human, ccd841 cells
OTUB2 (OTUB2A) = molecular target: T1, OTUB2 (OTUB2A) (Homo sapiens, UniProt Q96DC9); parameters: Intact protein LC/MS covalent labelling, fragments in pools of five, 200 uM each, 4 °C; conditions: 24 h, 4 °C, pool of five; 200 µM; covalent
T1 construct: full length residues 1-234, E. coli BL21(DE3)-R3, His tag removed by TEV, construct 27312 Da
T1 sequence (Q96DC9 1-234): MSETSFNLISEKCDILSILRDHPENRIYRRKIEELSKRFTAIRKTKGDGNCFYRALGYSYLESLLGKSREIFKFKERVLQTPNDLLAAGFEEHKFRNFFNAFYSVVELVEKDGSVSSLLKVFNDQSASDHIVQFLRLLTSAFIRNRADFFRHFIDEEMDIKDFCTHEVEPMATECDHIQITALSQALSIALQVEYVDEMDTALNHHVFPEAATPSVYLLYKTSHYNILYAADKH

NUDT7 = molecular target: T2, NUDT7 (Homo sapiens, UniProt P0C024); parameters: Intact protein LC/MS covalent labelling, fragments in pools of five, 200 uM each, 4 °C; conditions: 24 h, 4 °C, pool of five; 200 µM; covalent
T2 construct: residues 14-235, E. coli, pNIC28-Bsa4, N-terminal His6 tag removed by TEV, construct 26672 Da

PCAF = molecular target: T3, PCAF (Homo sapiens, UniProt Q92831); parameters: Intact protein LC/MS covalent labelling, fragments in pools of five, 200 uM each, 4 °C; conditions: 24 h, 4 °C, pool of five; 200 µM; covalent
T3 construct: gene KAT2B

BSA = molecular target: T4, BSA (Bos taurus, UniProt P02769); parameters: Intact protein LC/MS covalent labelling, fragments in pools of five, 200 uM each, 4 °C; conditions: 24 h, 4 °C, pool of five; 200 µM; covalent
T4 construct: gene ALB

in vitro [2] = test: in vitro; parameters: species or system HB2, CCD841; conditions: human, hek293 cells
in vitro [3] = test: in vitro; parameters: species or system CCD841, HEK293; conditions: human, hb2 cells, read-out: HB-2 Cells Viability (%)

T2 sequence (P0C024 14-235): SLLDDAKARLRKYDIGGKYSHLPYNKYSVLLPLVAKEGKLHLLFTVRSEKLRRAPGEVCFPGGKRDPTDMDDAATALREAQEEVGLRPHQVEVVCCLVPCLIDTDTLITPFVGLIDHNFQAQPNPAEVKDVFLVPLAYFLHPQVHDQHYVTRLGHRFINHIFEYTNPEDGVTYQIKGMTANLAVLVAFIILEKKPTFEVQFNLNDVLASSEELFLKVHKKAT
T4 sequence (P02769 whole entry, the tested form may be a part): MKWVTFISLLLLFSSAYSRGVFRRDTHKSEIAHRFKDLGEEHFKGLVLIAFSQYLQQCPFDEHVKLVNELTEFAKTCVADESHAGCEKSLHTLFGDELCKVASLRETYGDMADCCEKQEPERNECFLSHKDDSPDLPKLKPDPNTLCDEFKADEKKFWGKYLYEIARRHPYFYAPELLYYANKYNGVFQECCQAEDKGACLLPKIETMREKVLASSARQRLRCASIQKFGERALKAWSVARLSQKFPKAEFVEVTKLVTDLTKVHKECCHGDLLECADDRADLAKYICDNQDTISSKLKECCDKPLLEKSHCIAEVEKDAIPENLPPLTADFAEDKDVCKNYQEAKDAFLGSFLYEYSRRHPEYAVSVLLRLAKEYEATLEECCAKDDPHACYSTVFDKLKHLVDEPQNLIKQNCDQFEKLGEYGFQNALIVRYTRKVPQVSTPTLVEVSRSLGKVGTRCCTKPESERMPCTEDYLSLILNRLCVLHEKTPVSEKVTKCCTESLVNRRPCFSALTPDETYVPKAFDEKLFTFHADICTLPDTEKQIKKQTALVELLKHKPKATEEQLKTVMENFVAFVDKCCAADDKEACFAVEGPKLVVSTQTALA
T3 sequence (Q92831 whole entry, the tested form may be a part): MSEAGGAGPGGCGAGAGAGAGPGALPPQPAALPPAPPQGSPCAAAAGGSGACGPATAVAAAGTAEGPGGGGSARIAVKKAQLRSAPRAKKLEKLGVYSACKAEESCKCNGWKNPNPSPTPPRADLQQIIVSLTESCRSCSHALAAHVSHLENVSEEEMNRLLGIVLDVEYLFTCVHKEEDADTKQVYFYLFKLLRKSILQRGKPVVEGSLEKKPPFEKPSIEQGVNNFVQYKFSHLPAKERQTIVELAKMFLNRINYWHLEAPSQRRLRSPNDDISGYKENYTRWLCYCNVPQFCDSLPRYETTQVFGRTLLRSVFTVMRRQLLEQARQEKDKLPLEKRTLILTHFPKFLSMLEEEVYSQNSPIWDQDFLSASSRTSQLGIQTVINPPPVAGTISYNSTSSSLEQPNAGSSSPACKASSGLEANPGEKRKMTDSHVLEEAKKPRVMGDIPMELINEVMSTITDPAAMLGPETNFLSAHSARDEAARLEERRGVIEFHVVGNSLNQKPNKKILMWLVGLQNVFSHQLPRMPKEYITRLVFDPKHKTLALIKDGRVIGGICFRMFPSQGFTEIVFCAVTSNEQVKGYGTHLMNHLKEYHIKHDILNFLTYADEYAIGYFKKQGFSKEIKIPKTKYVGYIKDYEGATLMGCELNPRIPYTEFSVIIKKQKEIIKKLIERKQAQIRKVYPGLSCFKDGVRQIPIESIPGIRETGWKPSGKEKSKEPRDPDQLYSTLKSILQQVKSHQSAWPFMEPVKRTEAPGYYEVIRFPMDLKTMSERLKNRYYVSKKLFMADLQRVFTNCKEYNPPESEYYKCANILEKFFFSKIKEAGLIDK

Row | Compound | OTUB2 (OTUB2 (OTUB2A)) | NUDT7 (NUDT7) | PCAF (PCAF) | BSA (BSA) | viability at 48 h, 10 µM (in vitro [1]) [%] | viability at 48 h, 10 µM (in vitro [2]) [%] | viability at 48 h, 10 µM (in vitro [3]) [%]
1 | O=C(CCl)NCC1CCS(=O)(=O)C1 (stereo not drawn) [PCM-0102896] | 0.23 | 0 | 0 | 0 | 92.3 | 117 | 102
2 | CN(Cc1cc(C#N)ccc1F)C(=O)CCl [PCM-0102897] | 0 | 0.07 | 0 | 0 | 69.2 | 9.6 | 23.8
3 | CN(Cc1cnn(C)c1)C(=O)CCl.Cl [PCM-0102899] | 0.26 | 0.08 | 0 | 0 | 91.9 | 70.7 | 101
4 | CCN(C(=O)CCl)c1ccc(F)cc1 [PCM-0102900] | 0 | 0.29 | 0 | 0 | 13.6 | 10.3 | 61.2
5 | Cc1nc(-c2ccc3c(c2)CCN3C(=O)CCl)cs1 [PCM-0102901] | 0 | 0.46 | 0 | 0 | 22.6 | 1.2 | 2.3
6 | COC(=O)CNC(=O)CCl [PCM-0102906] | 0.06 | 0 | 0 | 0 | 86.7 | 112 | 87.7
7 | CCC(C)NC(=O)NC(=O)CCl (stereo not drawn) [PCM-0102908] | 0 | 0 | 0 | 0 | 91.8 | 88.7 | 110
8 | CC1CCC(NC(=O)CCl)CC1 (stereo not drawn) [PCM-0102913] | 0.08 | 0 | 0 | 0 | 86.2 | 72.4 | 96.2
9 | O=C(CCl)Nc1ccc(Cl)cc1Cl [PCM-0102914] | 0.14 | 0.22 | 0 | 0 | 82.7 | 38.3 | 52.5
10 | O=C(CCl)Nc1ccc(N2CCCC2=O)cc1 [PCM-0102915] | 0.49 | 0 | 0 | 0 | 65.3 | 17.7 | 59.3
11 | CN(C(=O)CCl)C1(C#N)CCCCC1 [PCM-0102916] | 0 | 0 | 0 | 0 | 47.6 | 7.5 | 38
12 | O=C(CCl)N1CCN(Cc2ccccc2)C1=O [PCM-0102919] | 0.1 | 0 | 0 | 0 | 96.2 | 90.9 | 102
13 | O=C(CCl)N1CCC(c2nc3ccccc3o2)CC1 [PCM-0102920] | 0 | 0 | 0 | 0 | 70 | 21.4 | 40.1
14 | CN1CCN(C(=O)CCl)CC1 [PCM-0102921] | 0 | 0 | 0 | 0 | 109 | 90.1 | 102
15 | CC(C)(C)OC(=O)N1CCCC(CNC(=O)CCl)C1 (stereo not drawn) [PCM-0102923] | 0.2 | 0 | 0 | 0.13 | 91 | 92.2 | 99.5
16 | O=C(CCl)Nc1ccc(Br)cc1F [PCM-0102926] | 0.2 | 0.17 | 0 | 0 | 59.9 | 32.5 | 50.9
17 | C=CC(=O)N1Cc2ccccc2OC(C)(C)C1 [PCM-0102927] | 0 | 0 | 0 | 0 | 111 | 93.4 | 104

Continued, in another order:

Row | OTUB2 (OTUB2 (OTUB2A)) | NUDT7 (NUDT7) | PCAF (PCAF) | BSA (BSA) | Compound | viability at 48 h, 10 µM (in vitro [1]) [%] | viability at 48 h, 10 µM (in vitro [2]) [%] | viability at 48 h, 10 µM (in vitro [3]) [%]
18 | 0 | 0.04 | 0 | 0 | CC(C)c1nnc(NC(=O)CCl)s1 [PCM-0102928] | 77.9 | 81.8 | 85.3
19 | 0 | 0 | 0 | 0 | Cl.O=C(CCl)Nc1ccncc1 [PCM-0102930] | 90.7 | 90.5 | 86.4
20 | 0 | 0 | 0 | 0 | CC1CCCN(C(=O)C2CCN(C(=O)CCl)CC2)C1 (stereo not drawn) [PCM-0102933] | 80.1 | 57.9 | 92.6
21 | 0 | 0.29 | 0 | 0 | O=C(CCl)NC1(c2ccccc2)CCC1 [PCM-0102935] | 89.7 | 53.8 | 81.5
22 | 0.13 | 0 | 0 | 0 | CCOC(=O)C1CCCCN1C(=O)CCl (stereo not drawn) [PCM-0102937] | 89.4 | 71.9 | 90.3
23 | 0 | 0 | 0 | 0 | O=C(CCl)N1CCOC2CCCCC21 (stereo not drawn) [PCM-0102940] | 95.8 | 74 | 93.7
24 | 0 | 0.17 | 0 | 0.3 | CC(C)N(C(=O)CCl)C1CCCCC1 [PCM-0102941] | 26 | 56.3 | 85.7
25 | 0.1 | 0.26 | 0 | 0 | CN(CC12CC3CC(CC(C3)C1)C2)C(=O)CCl [PCM-0102942] | 6.7 | 2.4 | 7.8
26 | 0 | 0 | 0 | 0 | CC1CCN(C(=O)CCl)CC1 [PCM-0102945] | 108 | 88.3 | 103
27 | 0 | 0.13 | 0 | 0 | CC(C)N(C(=O)CCl)C1CCCC1 [PCM-0102948] | 102 | 84.3 | 88.4
28 | 0 | 0 | 0 | 0 | Cc1nn(C)c(C)c1NC(=O)CCl [PCM-0102949] | 83.8 | 99.6 | 93.9
29 | 0.18 | 0 | 0 | 0 | O=C(CCl)NNC(=O)c1ccc(Cl)cc1 [PCM-0102953] | 82.1 | 82.8 | 83
30 | 0.8 | 0 | 0 | 0 | O=C(CCl)NNC(=O)c1ccccc1Cl [PCM-0102954] | 72.3 | 91.3 | 91.9
31 | 0 | 0 | 0 | 0 | C=CC(=O)Nc1cccc(C#N)c1 [PCM-0102956] | 102 | 74.5 | 104
32 | 0.5 | 0 | 0 | 0 | Cc1ccc(CNC(=O)CCl)cc1F [PCM-0102959] | 84 | 62.6 | 86.6
33 | 0.06 | 0 | 0 | 0 | C=CC(=O)N1CCC(C#N)(c2ccccn2)CC1 [PCM-0102960] | 110 | 104 | 102
